# Patent US20100222437A1, “C[…]-PSYCHOTROPIC CANNABINOIDS FOR THE TREATMENT OF INFLAMMATORY DISEASES” (priority 2007, published 2010)
# Where two headings read alike, the source gives them in different places.
# Legend:
# [1] = test system: SW480 (Colon cancer) cells; experiment: Calcein-AM cytotoxicity assay, SW480; conditions: SW480, 24 h, compound alone
# Method: (§1) The cytotoxic effect of the Cannabigerol (CBG) and Cannabidiol (CBD) alone or in combination was investigated by the Calcein-AM assay. Briefly, AGS, SW480 and HTC116 cells were cultivated at a density of 1.0×10^4 cells/ml in 96-well plates, 200 μl cell suspension per well and cultured in DMEM containing 10% fetal calf serum. Cells were treated with or without CBD, CBG or a combination of both compounds for 24 h, after which the wells were washed and the cells incubated with Calcein-AM (1 μM) (Molecular Probes) for 30 min. Then the fluorescence of viable cells was detected in a microtitre plate reader (TECAN Genius Pro). The intensity of fluorescence was inversely proportional to cell death induced by the compounds.
# IL-1β = IL-1β release by LPS-stimulated human monocytes (ELISA); format: cell-based; conditions: for release of IL-1β (IL-1) in LPS-stimulated monocytes: LPS 10 ng/ml, 24 h, rank order Denbinobin, CBD, CBG
# Method: The inhibitory effect of CARMA-CBG extract on IL-1β release was studied in human peripheral mononuclear phagocytic cells. Monocytes from healthy human donors were prepared following a standardised protocol (Ficoll gradient preparation) using a completely endotoxin-free cultivation. Using 50 ml tubes, 25 ml Ficoll were loaded with 25 ml blood of buffy coats from healthy blood donors. The gradient was established by centrifugation at 1,800 r.p.m., 20° C. for 40 min by using slow acceleration and brakes. Peripheral blood mononuclear cells in the interphase were carefully removed and re-suspended in 50 ml pre-warmed phosphate buffered saline followed by centrifugation for 10 min at 1,600 r.p.m. and 20° C. The supernatant was discarded and the pellet washed in 50 ml PBS and centrifuged as described above. The pellet was then re-suspended in 50 ml RPMI-1640 low endotoxin-medium supplemented with 10% human serum (PAA). After counting the amount of cells in a particle counter, cells were seeded in 24-well plates for ELISA and incubated at 37° C./5% CO2. The medium and the non-adherent cells (lymphocytes) were removed and fresh RPMI-1640 medium containing 1% human serum was added. The monocytes were treated with LPS (10 ng/ml), in the absence or presence of increasing concentrations of CARMA-CBG extract dissolved in DMSO for 24 h. The production of the IL-1β was determined by ELISA. […] LPS-mediated activation in the absence of CARMA-CBG was arbitrarily set as 100% of IL-1β release (FIG. 5).
# Monocytes were isolated from healthy human donors as indicated above, and then treated with LPS (10 ng/ml), in the absence or presence of either CBG, or CBD or Denbinobin, as indicated, dissolved in DMSO. The production of IL-1 was determined by ELISA, and mean values from two independent experiments are shown. Full LPS-mediated activation was arbitrarily set as 100%.
# Monocytes from healthy human donors, were treated with LPS (10 ng/ml), in the absence or presence of either CBG, or CBD or Canflavin A or Denbinobin, combined as indicated. The production of IL-1 was determined by ELISA, and mean values from two independent experiments are shown.
# [2] = test system: HCT-116 (Colon cancer) cells; experiment: Calcein-AM cytotoxicity assay, HCT-116; conditions: HCT-116, 24 h, compound alone
# Method: as §1
# NF-kB = experiment: cells; format: cell-based; conditions: for % INHIBITON OF TNF-α-INDUCED NF-κB ACTIVATION: compound alone
# TNF-α = TNF-α release by LPS-stimulated human monocytes (ELISA); format: cell-based; conditions: for release of TNF-α in LPS-stimulated monocytes: LPS 10 ng/ml, 24 h, rank order Denbinobin, CBD, CBG
# Method: The inhibitory effect of CARMA-CBG extract on TNF-α release was studied in human peripheral mononuclear phagocytic cells. Monocytes were isolated as in Example 6 and were treated with LPS (10 ng/ml), in the absence or presence of increasing concentrations of CARMA-CBG extract dissolved in DMSO for 24 h. The production of the TNFα was determined by ELISA. […] LPS-mediated activation in the absence of CARMA-CBG was arbitrarily set as 100% of TNF-α release (FIG. 6).
# The production of TNF-α was determined by ELISA, on the supernatant of LPS-treated monocytes, as indicated above, in the absence or presence of either CBG, or CBD or Denbinobin, as indicated.
# Monocytes from healthy human donors, were treated with LPS (10 ng/ml), in the absence or presence of either CBG, or CBD or Canflavin A or Denbinobin, combined as indicated. The production of TNF-α was determined by ELISA as indicated above.
# [3] = test system: AGS (gastric cancer) cells; experiment: Calcein-AM cytotoxicity assay, AGS; conditions: 24 h, compound alone
# Method: as §1
# prostaglandin E2 = conditions: cited from earlier work
# leukaemia cell lines = conditions: cited from earlier work
# colon cancer cell lines = conditions: cited from earlier work
# HIV-1 = conditions: cited from earlier work
# intestinal inflammation = conditions: mice with induced IBD; cited from earlier work
# [4] = molecular target: T1, CB1 receptors in intestine submucose neurons (Rattus norvegicus, UniProt P20272); conditions: by activating CB1 receptors; cited from earlier work
# T1 construct: host or cells: intestine submucose neurons (in vivo)
# [5] = Homo sapiens, Monocyte, compound alone, 20 μM, read-out: % INHIBITION OF LPS-INDUCED IL-1 PRODUCTION
# [6] = Homo sapiens, Jurkat, read-out: % INHIBITON OF TNF-α-INDUCED NF-κB ACTIVATION
# [7] = Homo sapiens, Monocyte, compound alone, 10 μM, read-out: % INHIBITION OF LPS-INDUCED TNF-α-PRODUCTION
# [8] = Homo sapiens, Monocyte, compound alone, 20 μM, read-out: % INHIBITION OF LPS-INDUCED TNF-α-PRODUCTION
# T1 sequence (P20272 whole entry): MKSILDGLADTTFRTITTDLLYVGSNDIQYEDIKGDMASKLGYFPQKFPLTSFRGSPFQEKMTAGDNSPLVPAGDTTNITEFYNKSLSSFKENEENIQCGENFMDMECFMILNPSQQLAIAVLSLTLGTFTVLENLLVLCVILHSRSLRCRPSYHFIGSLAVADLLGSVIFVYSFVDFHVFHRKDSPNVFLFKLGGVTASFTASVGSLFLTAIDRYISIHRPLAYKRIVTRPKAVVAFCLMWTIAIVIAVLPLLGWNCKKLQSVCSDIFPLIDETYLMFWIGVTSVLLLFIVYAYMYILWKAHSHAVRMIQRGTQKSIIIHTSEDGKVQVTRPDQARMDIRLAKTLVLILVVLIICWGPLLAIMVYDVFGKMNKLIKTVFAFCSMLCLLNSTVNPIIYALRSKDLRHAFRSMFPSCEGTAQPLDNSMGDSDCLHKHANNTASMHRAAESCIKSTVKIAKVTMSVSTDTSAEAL
smiles,measurement,setting,value
"C=C(C)[C@@H]1CCC(C)=C[C@H]1c1c(O)cc(CCCCC)cc1O [CBD, Cannabidiol]","cytotoxicity (cell survival, Calcein-AM)",[1],induced cytotoxicity
same,release of IL-1β (IL-1) in LPS-stimulated monocytes,IL-1β,significant concentration-dependent decrease
same,% INHIBITION OF LPS-INDUCED IL-1 PRODUCTION,"IL-1β; compound alone, 10 μM",70.10%
same,% INHIBITION OF LPS-INDUCED IL-1 PRODUCTION,"IL-1β; compound alone, 20 μM",84.00%
same,"cytotoxicity (cell survival, Calcein-AM)",[2],induced cytotoxicity
same,% INHIBITON OF TNF-α-INDUCED NF-κB ACTIVATION,NF-kB; 10 μM,14.43%
same,% INHIBITON OF TNF-α-INDUCED NF-κB ACTIVATION,NF-kB; 20 μM,59.67%
same,release of TNF-α in LPS-stimulated monocytes,TNF-α,significant concentration-dependent decrease
same,% INHIBITION OF LPS-INDUCED TNF-α-PRODUCTION,"TNF-α; compound alone, 10 μM",33.30%
same,% INHIBITION OF LPS-INDUCED TNF-α-PRODUCTION,"TNF-α; compound alone, 20 μM",83.60%
same,"cytotoxicity (cell survival, Calcein-AM)",[3],induced cytotoxicity
"CCCCCc1cc(O)c(C/C=C(\C)CCC=C(C)C)c(O)c1 [CBG, Cannabigerol]","cytotoxicity (cell survival, Calcein-AM)",[1],induced cytotoxicity
same,inhibition at 10 µM,"IL-1β; Homo sapiens, Monocyte, read-out: % INHIBITION OF LPS-INDUCED IL-1 PRODUCTION",9.4%
same,inhibition at 20 µM,IL-1β; [5],32.6%
same,release of IL-1β (IL-1) in LPS-stimulated monocytes,IL-1β,significant concentration-dependent decrease
same,"cytotoxicity (cell survival, Calcein-AM)",[2],induced cytotoxicity
same,inhibition at 10 µM,NF-kB; [6],0%
same,inhibition at 20 µM,NF-kB; [6],18.3%
same,inhibition at 10 µM,TNF-α; [7],24.9%
same,inhibition at 20 µM,TNF-α; [8],59.8%
same,release of TNF-α in LPS-stimulated monocytes,TNF-α,significant concentration-dependent decrease
same,"cytotoxicity (cell survival, Calcein-AM)",[3],induced cytotoxicity
COc1cc(-c2cc(=O)c3c(O)c(C/C=C(\C)CCC=C(C)C)c(O)cc3o2)ccc1O [Canflavin A],release of prostaglandin E2,prostaglandin E2,can inhibit
same,inhibition at 10 µM,"IL-1β; Homo sapiens, Monocyte, compound alone, 10 μM, read-out: % INHIBITION OF LPS-INDUCED IL-1 PRODUCTION",0%
same,inhibition at 20 µM,IL-1β; [5],0%
same,inhibition at 10 µM,NF-kB; [6],16.6%
same,inhibition at 20 µM,NF-kB; [6],38.8%
same,inhibition at 10 µM,TNF-α; [7],0%
same,inhibition at 20 µM,TNF-α; [8],0%
COC1=CC(=O)c2ccc3cc(OC)cc(O)c3c2C1=O [Denbinobin],anti-tumoral activity,leukaemia cell lines,anti-tumoral activities
same,inhibition at 1 µM,"IL-1β; Homo sapiens, Monocyte, compound alone, 1 μM, read-out: % INHIBITION OF LPS-INDUCED IL-1 PRODUCTION",37%
same,release of IL-1β (IL-1) in LPS-stimulated monocytes,IL-1β,significant concentration-dependent decrease
same,% INHIBITION OF LPS-INDUCED IL-1 PRODUCTION,"IL-1β; compound alone, 2 μM00",70.00%
same,anti-tumoral activity,colon cancer cell lines,anti-tumoral activities
same,inhibition at 1 µM,NF-kB; [6],44.9%
same,inhibition at 2 µM,NF-kB; [6],93.1%
same,inhibition at 1 µM,"TNF-α; Homo sapiens, Monocyte, compound alone, 1 μM, read-out: % INHIBITION OF LPS-INDUCED TNF-α-PRODUCTION",32%
same,inhibition at 2 µM,"TNF-α; Homo sapiens, Monocyte, compound alone, 2 μM, read-out: % INHIBITION OF LPS-INDUCED TNF-α-PRODUCTION",64%
same,release of TNF-α in LPS-stimulated monocytes,TNF-α,significant concentration-dependent decrease
same,HIV-1 replication in T cells,HIV-1,can inhibit
"CCCCCc1cc(O)c2c(c1)OC(C)(C)[C@@H]1CCC(C)=C[C@@H]21 [THC, Δ-9-Tetrahydrocannabinoid]",intestinal inflammation,intestinal inflammation,reduces
same,gastrointestinal motility,[4],inhibits
